According to patent US4633014A, “Substituted 3-hydrazinopropionates” (priority 1983, dated 1986):

Key:
[1] = test system: arrhythmia induced by an intravenous administration of calcium chloride; experiment: Antiarrhythmic activity on a model of arrhythmia induced by intravenous calcium chloride (antagonism to calcium) in mice; assay type: in vivo; conditions: white mice, 20-40 minutes before
Experimental: The specific (antiarrhythmic) effect and acute toxicity were studied.
The antiarrhythmic activity of the compounds according to the present invention was studied on a model of arrhythmia induced by an intravenous administration of calcium chloride. In experiments on white mice of both sexes with a mass of 18-25 g narcotized by urethane (1,200 mg/kg intraperitoneally) ECG in the second standard lead was recorded. A 2% solution of calcium chloride was introduced into the tail vein at a constant rate (0.01 ml for 2 sec). The dose of calcium chloride causing arrhythmia and the dose causing the heart arrest were determined. In the test groups the test compounds were administered intraperitoneally 20-40 minutes before the beginning of the experiment.

white mice = experiment: in vivo
Experimental: (§1) The study of the effect provided by the compounds according to the present invention on the cardio-vascular system was carried out in experiments on white mice. The specific (antiarrhythmic) effect and acute toxicity were studied.
(§2) The acute toxicity of the compounds according to the present invention was determined in experiments on white mice with a mass of 20-25 g. The test compounds were administered intraperitoneally in the form of aqueous solutions or suspensions in Twin-80. Observation over the test animals was effected for 10 days.

in vivo = conditions: mouse, in vivo, ip
Experimental: as §1, §2

[2] = white mice, intraperitoneal, relative to quinidine

## C=CC(=O)N(CCC(=O)OC)N(C)C [I-34, 3-(2,2-dimethyl-1-acroylhydrazino)-methylpropionate]
[1]; intraperitoneal dose 5 mg/kg
  Dose of calcium chloride causing arrythmia in animals under experiment: 108,4 mg/kg
  Dose of calcium chloride causing death in animals under experiment: 130,0 mg/kg
[1]; intraperitoneal dose 15 mg/kg
  Dose of calcium chloride causing arrythmia in animals under experiment: 110,5 mg/kg
  Dose of calcium chloride causing death in animals under experiment: 136,0 mg/kg
White mice; mouse, in vivo, ip, 14400 min
  Relative toxisity to quinidine: 6,2
In vivo
  LD50 at 240 h: 980 mg/kg

## COC(=O)CCN(C(=O)CCO)N(C)C [I-35, 3-(2,2-Dimethyl-1-3'-hydroxypropanoylhydrazino)-methylpropionate]
[1]; intraperitoneal dose 5 mg/kg
  Dose of calcium chloride causing arrythmia in animals under experiment: 102,3 mg/kg
  Dose of calcium chloride causing death in animals under experiment: 120 mg/kg
[1]; intraperitoneal dose 15 mg/kg
  Dose of calcium chloride causing arrythmia in animals under experiment: 105,8 mg/kg
  Dose of calcium chloride causing death in animals under experiment: 132,5 mg/kg
White mice; mouse, in vivo, ip, 14400 min
  Relative toxisity to quinidine: > 19,2
In vivo
  LD50 at 240 h: > 3000 mg/kg

## COC(=O)CCN(C(=O)OC)N(C)C [I-36, 3-(2,2-dimethyl-1-methoxycarbonylhydrazino)methylpropionate]
[1]; intraperitoneal dose 5 mg/kg
  Dose of calcium chloride causing arrythmia in animals under experiment: 94,0 mg/kg
  Dose of calcium chloride causing death in animals under experiment: 113,6 mg/kg
[1]; intraperitoneal dose 15 mg/kg
  Dose of calcium chloride causing arrythmia in animals under experiment: 98,6 mg/kg
  Dose of calcium chloride causing death in animals under experiment: 118,5 mg/kg
White mice; [2]
  Relative toxisity to quinidine: 8,8
In vivo
  LD50 at 240 h: 1380 mg/kg

## COC(=O)C(C)CN(C(C)=O)N(C)C (stereo not drawn) [I-37, 3-(2,2-dimethyl-I-acetylhydrazino)-2-methylmethylpropionate]
[1]; intraperitoneal dose 5 mg/kg
  Dose of calcium chloride causing arrythmia in animals under experiment: 100 mg/kg
  Dose of calcium chloride causing death in animals under experiment: 132,0 mg/kg
[1]; intraperitoneal dose 15 mg/kg
  Dose of calcium chloride causing arrythmia in animals under experiment: 123 mg/kg
  Dose of calcium chloride causing death in animals under experiment: 138,0 mg/kg
White mice; [2]
  Relative toxisity to quinidine: 5,1
In vivo
  LD50 at 240 h: 810 mg/kg

## CCCCCC(=O)N(CC(C)C(=O)OC)N(C)C (stereo not drawn) [I-38, 3-(2,2-dimethyl-1-hexanoylhydrazino)-2-methylmethylpropionate]
[1]; intraperitoneal dose 5 mg/kg
  Dose of calcium chloride causing arrythmia in animals under experiment: 102,0 mg/kg
  Dose of calcium chloride causing death in animals under experiment: 115,8 mg/kg
[1]; intraperitoneal dose 15 mg/kg
  Dose of calcium chloride causing arrythmia in animals under experiment: 96,5 mg/kg
  Dose of calcium chloride causing death in animals under experiment: 120,0 mg/kg
White mice; mouse, in vivo, ip, 14400 min
  Relative toxisity to quinidine: 12,3
In vivo
  LD50 at 240 h: 1930 mg/kg

## COC(=O)C(C)CN(C(=O)c1ccccc1)N(C)C (stereo not drawn) [I-39, 3-(2,2-dimethyl-1-benzoylhydrazino)-2-methylmethylpropionate]
[1]; intraperitoneal dose 5 mg/kg
  Dose of calcium chloride causing arrythmia in animals under experiment: 88,7 mg/kg
  Dose of calcium chloride causing death in animals under experiment: 111,3 mg/kg
[1]; intraperitoneal dose 15 mg/kg
  Dose of calcium chloride causing arrythmia in animals under experiment: 100,0 mg/kg
  Dose of calcium chloride causing death in animals under experiment: 121,5 mg/kg
White mice; mouse, in vivo, ip, 14400 min
  Relative toxisity to quinidine: 11,2
In vivo
  LD50 at 240 h: 1750 mg/kg

## COC(=O)C(C)CN(C(=O)c1ccccc1F)N(C)C (stereo not drawn) [I-40, 3-(2,2-dimethyl-1-2'-fluorobenzoylhydrazino)-2-methylmethylpropionate]
[1]; intraperitoneal dose 5 mg/kg
  Dose of calcium chloride causing arrythmia in animals under experiment: 93,5 mg/kg
  Dose of calcium chloride causing death in animals under experiment: 115,0 mg/kg
[1]; intraperitoneal dose 15 mg/kg
  Dose of calcium chloride causing arrythmia in animals under experiment: 103,3 mg/kg
  Dose of calcium chloride causing death in animals under experiment: 118,6 mg/kg
White mice; mouse, in vivo, ip, 14400 min
  Relative toxisity to quinidine: 8,0
In vivo
  LD50 at 240 h: 1400 mg/kg

## COC(=O)C(C)CN(C(=O)c1ccc(Br)cc1)N(C)C (stereo not drawn) [I-41]
[1]; intraperitoneal dose 5 mg/kg
  Dose of calcium chloride causing arrythmia in animals under experiment: 90,6 mg/kg
  Dose of calcium chloride causing death in animals under experiment: 110,0 mg/kg
[1]; intraperitoneal dose 15 mg/kg
  Dose of calcium chloride causing arrythmia in animals under experiment: 102,5 mg/kg
  Dose of calcium chloride causing death in animals under experiment: 122,0 mg/kg
White mice; [2]
  Relative toxisity to quinidine: 15,5
In vivo
  LD50 at 240 h: 2430 mg/kg

## CCOC(=O)CCN(C(C)=O)N(C)C [I-42, 3-(2,2-dimethyl-1-acetylhydrazino)ethylpropionate]
[1]; intraperitoneal dose 5 mg/kg
  Dose of calcium chloride causing arrythmia in animals under experiment: 87,5 mg/kg
  Dose of calcium chloride causing death in animals under experiment: 112,0 mg/kg
[1]; intraperitoneal dose 15 mg/kg
  Dose of calcium chloride causing arrythmia in animals under experiment: 103,0 mg/kg
  Dose of calcium chloride causing death in animals under experiment: 115,0 mg/kg
White mice; mouse, in vivo, ip, 14400 min
  Relative toxisity to quinidine: 15,2
In vivo
  LD50 at 240 h: 2380 mg/kg

## CCCCCC(=O)N(CCC(=O)OCC)N(C)C [I-43, 3-(2,2-dimethyl-1-hexanoylhydrazino)ethylpropionate]
[1]; intraperitoneal dose 5 mg/kg
  Dose of calcium chloride causing arrythmia in animals under experiment: 94,0 mg/kg
  Dose of calcium chloride causing death in animals under experiment: 105,0 mg/kg
[1]; intraperitoneal dose 15 mg/kg
  Dose of calcium chloride causing arrythmia in animals under experiment: 108,5 mg/kg
  Dose of calcium chloride causing death in animals under experiment: 120,3 mg/kg
White mice; mouse, in vivo, ip, 14400 min
  Relative toxisity to quinidine: 9,3
In vivo
  LD50 at 240 h: 1460 mg/kg
